Measured values reported in ChEMBL document CHEMBL5053541, “Andrographolide derivative as antagonist of vitamin D receptor to induce lipidation of microtubule associate protein 1 light chain 3 (LC3)” (Bioorg Med Chem, 2021).
The source made the active and inactive calls. No cut-off for these calls is given here.

Columns and labels:
HeLa = assay: Cytotoxicity against human HeLa cells assessed as reduction in cell viability measured after 24 hrs by methylene blue staining based assay
[1] = target: T1, Vitamin D3 receptor (Homo sapiens) (UniProt P11473); assay: Antagonist activity against calcitriol-activated VDR signalling in human HeLa cells assessed as inhibition of VDR signalling incubated with calcitriol for 1 hr followed by compound addition and measured after 24 hrs by luciferase reporter gene assay; format: cell-based
T1 sequence (whole entry): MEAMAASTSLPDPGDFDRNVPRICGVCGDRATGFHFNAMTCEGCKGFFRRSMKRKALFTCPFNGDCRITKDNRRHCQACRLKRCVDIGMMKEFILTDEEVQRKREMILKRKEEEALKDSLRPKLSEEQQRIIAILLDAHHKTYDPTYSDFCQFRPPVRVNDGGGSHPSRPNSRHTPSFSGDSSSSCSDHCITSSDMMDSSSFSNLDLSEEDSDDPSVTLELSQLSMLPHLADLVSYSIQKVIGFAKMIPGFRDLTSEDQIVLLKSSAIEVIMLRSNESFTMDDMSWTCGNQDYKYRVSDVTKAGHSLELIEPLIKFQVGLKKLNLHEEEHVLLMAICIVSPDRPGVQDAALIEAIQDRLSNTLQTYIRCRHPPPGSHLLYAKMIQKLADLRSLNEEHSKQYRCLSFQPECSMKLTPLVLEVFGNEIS

[2] = target: Nuclear factor NF-kappa-B complex (Homo sapiens) (UniProt Q00653+P19838+Q04206); assay: Inhibition of TNF-alpha induced NF-kappaB signalling in human HeLa cells incubated with TNF-alpha for 1 hr followed by compound addition and measured after 24 hrs by luciferase reporter gene assay; format: cell-based
[3] = target: Signal transducer and activator of transcription 3 (Homo sapiens) (UniProt P40763); assay: Inhibition of IFN-gamma stimulated STAT3 signalling in human HeLa cells incubated for 1 hr withIFN-gamma followed by compound addition and measured after 24 hrs by luciferase reporter gene assay; format: cell-based
N2a [4] = assay: Induction of autophagy in MPP+-induced mouse N2a cells assessed as increase in LC3-II expression at 10 uM measured after 6 hrs by western blot analysis; format: functional, cell-based
SH-SY5Y [5] = assay: Neuroprotective activity against SNCA-induced neurotoxicity in human SH-SY5Y cells transfected with adenovirus expressing […] SNCA assessed as reduction in […] SNCA expression at 100 nM measured after 6 hrs by western blot analysis; format: functional, cell-based
N2a [6] = assay: Effect on SNCA oligomerization in mouse N2a cells transfected with Syn-luc1 and Syn-luc2 plasmids assessed as reduction in SNCA self-oligomerization by measuring luciferase activity at 100 nM measured after 6 hrs by bioluminescent protein-fragment complementation assay; format: functional, cell-based
N2a [7] = assay: Induction of autophagy in MPP+-induced mouse N2a cells infected with pAde-LC3-EGFP- mCherry assessed as formation of mCherry foci by measuring increased in red fluorescence at 500 nM measured after 4 hrs by Hoechst staining based confocal microscope analysis; format: functional, cell-based
[8] = target: T1, Vitamin D3 receptor (Homo sapiens); assay: Antagonist activity at VDR in human HeLa cells assessed as increase in ratio of LC3-II to LC-I at 100 nM in presence or absence of calcitriol measured after 4 hrs by western blot analysis; format: cell-based
[9] = target: T1, Vitamin D3 receptor (Homo sapiens); assay: Antagonist activity at VDR in human HeLa cells assessed as decrease in p62 expression at 100 nM in presence or absence of calcitriol measured after 4 hrs by western blot analysis; format: cell-based; details: filed as antagonist
[10] = target: T1, Vitamin D3 receptor (Homo sapiens); assay: Antagonist activity at VDR in human HeLa cells assessed as decrease in mTOR phosphorylation at Ser2448 residue at 100 nM in presence or absence of calcitriol measured after 4 hrs by western blot analysis; format: cell-based
SH-SY5Y [11] = assay: Neuroprotective activity against SNCA-induced neurotoxicity in human SH-SY5Y cells transfected with adenovirus expressing […] SNCA assessed as inhibition of mTOR activation at 100 nM measured after 6 hrs by western blot analysis; format: functional, cell-based
SH-SY5Y [12] = assay: Neuroprotective activity against SNCA-induced neurotoxicity in human SH-SY5Y cells transfected with adenovirus expressing […] SNCA assessed as inhibition of p62 expression at 100 nM measured after 6 hrs by western blot analysis; format: functional, cell-based
SH-SY5Y [13] = assay: Neuroprotective activity against A53T SNCA-induced cytotoxicity in human SH-SY5Y cells assessed as decrease in A53T SNCA induced LDH release at 100 nM by LDH assay; format: functional, cell-based
[14] = target: T1, Vitamin D3 receptor (Homo sapiens); assay: Antagonist activity at VDR in human HeLa cells assessed as increase in ratio of LC3-II to LC-I at 10 uM in presence or absence of calcitriol measured after 4 hrs by western blot analysis; format: cell-based; details: filed as antagonist
[15] = target: T1, Vitamin D3 receptor (Homo sapiens); assay: Antagonist activity at VDR in human HeLa cells assessed as decrease in mTOR phosphorylation at Ser2448 residue at 10 uM in presence or absence of calcitriol measured after 4 hrs by western blot analysis; format: cell-based
[16] = target: T1, Vitamin D3 receptor (Homo sapiens); assay: Antagonist activity at VDR in human HeLa cells assessed as reduction in CYP27B1 mRNA expression at 10 uM in presence of calcitriol measured after 4 hrs by […]; format: cell-based
[17] = target: T1, Vitamin D3 receptor (Homo sapiens); assay: Antagonist activity at VDR in human HeLa cells assessed as reduction in CYP27B1 mRNA expression at 10 uM measured after 4 hrs by […]; format: cell-based; details: filed as antagonist
SH-SY5Y [18] = assay: Neuroprotective activity against SNCA-induced neurotoxicity in human SH-SY5Y cells transfected with adenovirus expressing […] SNCA assessed as reduction in […] SNCA expression at 10 uM measured after 6 hrs by western blot analysis; format: functional, cell-based
N2a [19] = assay: Effect on SNCA oligomerization in mouse N2a cells transfected with Syn-luc1 and Syn-luc2 plasmids assessed as reduction in SNCA self-oligomerization by measuring luciferase activity at 10 to 20 uM measured after 6 hrs by bioluminescent protein-fragment complementation assay; format: functional, cell-based; details: dose 10-20 µM
N2a [20] = assay: Induction of autophagy in MPP+-induced mouse N2a cells infected with pAde-LC3-EGFP- mCherry assessed as formation of mCherry foci by measuring increased in red fluorescence at 10 uM measured after 4 hrs by Hoechst staining based confocal microscope analysis; format: functional, cell-based
N2a [21] = assay: Upregulation of SREBP2 cleavage in MPP+-induced mouse N2a cells assessed as increase in active form of phospho-SREBP2 level measured up to 6 hrs by western blot analysis; format: functional
N2a [22] = assay: Inhibition of lipid synthesis related gene expression in MPP+-induced mouse N2a cells assessed as reduction in Scap gene expression measured after 6 hrs by qRT-PCR analysis; format: functional
N2a [23] = assay: Inhibition of lipid synthesis related gene expression in MPP+-induced mouse N2a cells assessed as reduction in Ldr gene expression measured after 6 hrs by qRT-PCR analysis; format: functional
N2a [24] = assay: Inhibition of lipid synthesis related gene expression in MPP+-induced mouse N2a cells assessed as reduction in Fasn gene expression measured after 6 hrs by qRT-PCR analysis; format: functional
N2a [25] = assay: Inhibition of lipid synthesis related gene expression in MPP+-induced mouse N2a cells assessed as reduction in Insig-1 gene expression measured after 6 hrs by qRT-PCR analysis; format: functional
N2a [26] = assay: Induction of autophagy in MPP+-induced mouse N2a cells expressing myc-VDR plasmid assessed as LC3 lipidation at 10 uM measured after 6 hrs by western blot analysis; format: functional, cell-based
N2a [27] = assay: Induction of autophagy in MPP+-induced mouse N2a cells transfected with Atg7 shRNA assessed as increase in LC3-II expression at 10 uM measured after 6 hrs by western blot analysis; format: functional, cell-based
N2a [28] = assay: Upregulation of SREBP2 cleavage in MPP+-induced mouse N2a cells assessed as increase in active cleaved form of SREBP2 level measured up to 6 hrs by western blot analysis; format: functional
N2a [29] = assay: Inhibition of lipid synthesis related gene expression in MPP+-induced mouse N2a cells assessed as reduction in ACACA gene expression measured after 6 hrs by qRT-PCR analysis; format: functional
SH-SY5Y [30] = assay: Neuroprotective activity against A53T SNCA-induced cytotoxicity in human SH-SY5Y cells assessed as decrease in A53T SNCA induced LDH release at 10 uM by LDH assay; format: functional, cell-based
[31] = target: T1, Vitamin D3 receptor (Homo sapiens); assay: Antagonist activity at VDR in human HeLa cells assessed as decrease in p62 expression at 10 uM in presence or absence of calcitriol measured after 4 hrs by western blot analysis; format: cell-based; details: filed as antagonist

Chain of Signal transducer and activator of transcription 3 (Homo sapiens) (P40763 whole entry): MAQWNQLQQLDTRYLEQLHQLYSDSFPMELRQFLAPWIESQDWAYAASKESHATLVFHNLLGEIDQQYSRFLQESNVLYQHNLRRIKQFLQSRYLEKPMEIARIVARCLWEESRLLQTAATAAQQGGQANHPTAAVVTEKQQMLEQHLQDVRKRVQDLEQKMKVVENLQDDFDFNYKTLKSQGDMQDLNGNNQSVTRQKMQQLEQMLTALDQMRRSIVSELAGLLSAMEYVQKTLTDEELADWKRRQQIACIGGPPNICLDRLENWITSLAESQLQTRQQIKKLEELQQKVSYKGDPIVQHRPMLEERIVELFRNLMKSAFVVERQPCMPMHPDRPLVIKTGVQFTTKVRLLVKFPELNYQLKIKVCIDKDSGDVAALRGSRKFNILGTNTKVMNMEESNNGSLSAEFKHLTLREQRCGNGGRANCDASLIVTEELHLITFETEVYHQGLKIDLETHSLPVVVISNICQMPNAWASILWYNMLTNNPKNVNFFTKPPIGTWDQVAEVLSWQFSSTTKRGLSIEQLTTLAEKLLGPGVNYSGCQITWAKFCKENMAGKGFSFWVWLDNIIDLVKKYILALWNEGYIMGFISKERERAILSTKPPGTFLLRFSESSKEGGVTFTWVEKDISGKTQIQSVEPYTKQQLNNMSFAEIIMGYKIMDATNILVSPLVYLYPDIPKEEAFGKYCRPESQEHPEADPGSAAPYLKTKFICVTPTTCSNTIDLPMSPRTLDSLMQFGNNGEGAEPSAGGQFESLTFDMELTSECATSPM
Chain of Nuclear factor NF-kappa-B complex (Homo sapiens) (P19838 whole entry, looked up): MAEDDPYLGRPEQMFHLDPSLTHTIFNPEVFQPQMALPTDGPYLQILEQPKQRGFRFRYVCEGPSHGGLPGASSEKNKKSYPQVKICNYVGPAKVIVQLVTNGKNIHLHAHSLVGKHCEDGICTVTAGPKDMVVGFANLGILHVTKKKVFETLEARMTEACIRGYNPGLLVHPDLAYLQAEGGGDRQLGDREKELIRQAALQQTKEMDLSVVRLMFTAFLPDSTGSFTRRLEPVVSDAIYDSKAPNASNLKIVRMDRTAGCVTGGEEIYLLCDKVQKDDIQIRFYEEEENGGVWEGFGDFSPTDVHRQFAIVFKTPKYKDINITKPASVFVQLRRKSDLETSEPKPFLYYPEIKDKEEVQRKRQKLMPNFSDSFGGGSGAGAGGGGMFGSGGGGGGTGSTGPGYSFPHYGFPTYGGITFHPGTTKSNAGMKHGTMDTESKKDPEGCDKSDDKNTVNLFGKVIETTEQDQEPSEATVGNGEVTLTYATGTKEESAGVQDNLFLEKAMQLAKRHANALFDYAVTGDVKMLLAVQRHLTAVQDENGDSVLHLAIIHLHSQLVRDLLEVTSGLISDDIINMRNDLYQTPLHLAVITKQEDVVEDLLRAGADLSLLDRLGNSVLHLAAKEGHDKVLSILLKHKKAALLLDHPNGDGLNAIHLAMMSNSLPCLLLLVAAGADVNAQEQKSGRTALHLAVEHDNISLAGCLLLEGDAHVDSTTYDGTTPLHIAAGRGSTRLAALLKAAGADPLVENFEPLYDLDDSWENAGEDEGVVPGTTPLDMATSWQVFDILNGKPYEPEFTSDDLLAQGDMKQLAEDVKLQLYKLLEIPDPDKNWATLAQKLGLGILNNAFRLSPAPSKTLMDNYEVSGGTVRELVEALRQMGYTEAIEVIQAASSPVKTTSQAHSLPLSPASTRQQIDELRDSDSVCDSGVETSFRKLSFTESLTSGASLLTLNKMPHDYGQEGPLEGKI
Chain of Nuclear factor NF-kappa-B complex (Homo sapiens) (Q00653 whole entry, looked up): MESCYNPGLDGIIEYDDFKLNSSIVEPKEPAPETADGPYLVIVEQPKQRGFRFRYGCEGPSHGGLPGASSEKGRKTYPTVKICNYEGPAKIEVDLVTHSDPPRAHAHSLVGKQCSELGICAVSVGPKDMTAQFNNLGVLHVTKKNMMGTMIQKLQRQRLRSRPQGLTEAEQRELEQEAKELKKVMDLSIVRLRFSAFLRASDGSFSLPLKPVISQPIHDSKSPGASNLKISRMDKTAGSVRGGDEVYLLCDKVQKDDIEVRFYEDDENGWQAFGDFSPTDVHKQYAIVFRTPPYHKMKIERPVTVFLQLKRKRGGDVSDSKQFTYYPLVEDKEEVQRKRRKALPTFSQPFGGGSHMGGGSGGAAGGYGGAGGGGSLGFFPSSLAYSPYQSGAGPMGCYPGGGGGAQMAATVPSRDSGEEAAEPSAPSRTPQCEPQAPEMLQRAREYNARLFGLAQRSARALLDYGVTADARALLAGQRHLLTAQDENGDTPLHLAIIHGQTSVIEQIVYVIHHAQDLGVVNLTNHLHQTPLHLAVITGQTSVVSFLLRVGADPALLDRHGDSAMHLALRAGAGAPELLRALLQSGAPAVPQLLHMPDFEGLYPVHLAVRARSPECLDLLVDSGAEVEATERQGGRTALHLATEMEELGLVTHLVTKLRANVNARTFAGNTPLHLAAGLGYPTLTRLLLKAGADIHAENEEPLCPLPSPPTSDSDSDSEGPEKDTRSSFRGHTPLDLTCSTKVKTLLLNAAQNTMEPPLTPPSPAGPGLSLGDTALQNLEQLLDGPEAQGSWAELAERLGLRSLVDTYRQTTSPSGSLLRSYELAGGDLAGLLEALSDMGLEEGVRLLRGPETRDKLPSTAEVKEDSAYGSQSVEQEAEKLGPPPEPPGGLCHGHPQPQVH
Chain of Nuclear factor NF-kappa-B complex (Homo sapiens) (Q04206 whole entry, looked up): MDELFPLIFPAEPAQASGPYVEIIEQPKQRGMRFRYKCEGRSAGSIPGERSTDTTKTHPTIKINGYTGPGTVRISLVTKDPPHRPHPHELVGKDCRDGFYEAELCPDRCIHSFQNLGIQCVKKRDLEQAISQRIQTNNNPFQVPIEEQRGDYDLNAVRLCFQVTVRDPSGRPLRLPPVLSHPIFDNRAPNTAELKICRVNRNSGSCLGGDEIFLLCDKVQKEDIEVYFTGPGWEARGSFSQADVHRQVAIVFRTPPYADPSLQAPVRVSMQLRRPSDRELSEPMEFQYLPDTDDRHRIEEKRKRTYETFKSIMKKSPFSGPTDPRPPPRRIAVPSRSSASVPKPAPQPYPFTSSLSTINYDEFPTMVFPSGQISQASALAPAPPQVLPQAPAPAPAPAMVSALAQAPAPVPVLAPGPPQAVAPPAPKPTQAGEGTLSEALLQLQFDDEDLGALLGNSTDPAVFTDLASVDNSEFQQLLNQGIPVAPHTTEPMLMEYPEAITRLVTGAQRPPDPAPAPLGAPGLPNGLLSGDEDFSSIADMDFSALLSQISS

| SMILES | inhibition [1] | inhibition [3] | inhibition ([1]; filed as antagonist) | Activity (HeLa) | also measured |
| --- | --- | --- | --- | --- | --- |
| C=C1CC[C@@H]2[C@]3(C)COC(C)(C)O[C@@H]3CC[C@@]2(C)[C@@H]1C/C=C(/CO)[C@@H](CO)O[Si](C)(C)C(C)(C)C | inactive | inactive |  | Non-Toxic | inhibition [2]: inactive |
| CCC(=O)N1CCN(c2ccc(-n3c(=O)ccc4cnc5ccc(-c6cnc7ccccc7c6)cc5c43)cc2C(F)(F)F)CC1 |  |  |  |  | Activity (N2a [4]): Active; Activity (SH-SY5Y [5]): Active; Activity (N2a [6]): Active; Activity (N2a [7]): Active; Activity [8]: inactive; Activity [9]: Active; Activity [10]: inactive; inhibition (SH-SY5Y [11]): Active; inhibition (SH-SY5Y [12]): Active; Activity (SH-SY5Y [13]): Active |
| C=C1CC[C@@H]2[C@](C)(CO)[C@H](O)CC[C@@]2(C)[C@@H]1C/C=C(/COC(C)=O)[C@@H](COC(C)=O)O[Si](C)(C)C(C)(C)C |  | inactive | Active | Non-Toxic | Activity [14]: Active; inhibition ([15]; filed as antagonist): Active; Activity [16]: inactive |
| C=C1CC[C@@H]2[C@]3(C)COC(C)(C)O[C@@H]3CC[C@@]2(C)[C@@H]1C/C=C(/COC(C)=O)[C@@H](COC(C)=O)O[Si](C)(C)C(C)(C)C | inactive | inactive |  | Non-Toxic |  |
| C=C1CC[C@@H]2[C@](C)(COC(C)=O)[C@H](OC(C)=O)CC[C@@]2(C)[C@@H]1C/C=C(/COC(C)=O)[C@@H](COC(C)=O)O[Si](C)(C)C(C)(C)C | inactive | inactive |  | Non-Toxic |  |
| C=C1CC[C@@H]2[C@](C)(COC(C)=O)[C@H](O)CC[C@@]2(C)[C@@H]1C/C=C(/COC(C)=O)[C@@H](COC(C)=O)O[Si](C)(C)C(C)(C)C |  | inactive | Active | Non-Toxic | Activity (SH-SY5Y [18]): Active; Activity (N2a [19]): Active; Activity (N2a [4]): Active; Activity (N2a [20]): Active; Activity [14]: Active; inhibition [15]: inactive; inhibition [17]: Active; Activity (N2a [21]): Active; Activity (N2a [22]): inactive; Activity (N2a [23]): inactive; Activity (N2a [24]): inactive; Activity (N2a [25]): inactive; Activity (N2a [26]): inactive; Activity (N2a [27]): Active; Activity (N2a [28]): Active; Activity (N2a [29]): inactive; Activity (SH-SY5Y [30]): Active |
| C=C1CC[C@@H]2[C@]3(C)COC(C)(C)O[C@@H]3CC[C@@]2(C)[C@@H]1C/C=C(/C=O)[C@@H](COC(C)=O)O[Si](C)(C)C(C)(C)C |  | inactive | Active | Non-Toxic | inhibition ([15]; filed as antagonist): Active; inhibition [17]: Active |

Further lines, with some results ahead:

| inhibition [1] | inhibition [3] | inhibition ([1]; filed as antagonist) | SMILES | Activity (HeLa) | also measured |
| --- | --- | --- | --- | --- | --- |
| inactive | inactive |  | C=C1CC[C@@H]2[C@]3(C)COC(C)(C)O[C@@H]3CC[C@@]2(C)[C@@H]1C/C=C1/C(=O)OC[C@H]1O[Si](C)(C)C(C)(C)C | Non-Toxic |  |
|  | inactive | Active | C=C1CC[C@@H]2[C@]3(C)COC(C)(C)O[C@@H]3CC[C@@]2(C)[C@@H]1C/C=C(/CO)[C@@H](CO)O[Si](CC)(CC)CC | Non-Toxic | inhibition [2]: Active |
|  | inactive | Active | C=C1CC[C@@H]2[C@](C)(CO)[C@H](O)CC[C@@]2(C)[C@@H]1C/C=C1/C(O)OC[C@H]1O[Si](C)(C)C(C)(C)C (stereo partly drawn) | Non-Toxic |  |
|  | inactive | Active | C=C1CC[C@@H]2[C@]3(C)COC(C)(C)O[C@@H]3CC[C@@]2(C)[C@@H]1C/C=C1/C(O)OC[C@H]1O[Si](CC)(CC)CC (stereo partly drawn) | Non-Toxic | Activity [14]: Active; inhibition ([15]; filed as antagonist): Active; inhibition [17]: Active |
| inactive | inactive |  | C=C1CC[C@@H]2[C@](C)(CO)[C@H](O)CC[C@@]2(C)[C@@H]1C/C=C1/C(O)OC[C@H]1O[Si](CC)(CC)CC (stereo partly drawn) | Non-Toxic |  |
| inactive | inactive |  | C=C1CC[C@@H]2[C@]3(C)COC(C)(C)O[C@@H]3CC[C@@]2(C)[C@@H]1C/C=C1/C(O)OC[C@H]1O[Si](C)(C)C(C)(C)C (stereo partly drawn) | Non-Toxic | inhibition [2]: inactive |
| inactive | inactive |  | C=C1CC[C@@H]2[C@]3(C)COC(C)(C)O[C@@H]3CC[C@@]2(C)[C@@H]1C/C=C1/C(=O)OC[C@H]1O[Si](CC)(CC)CC | Non-Toxic | Activity [31]: Active |
